# From ChEMBL document CHEMBL6092185, “Discovery of glycosidated glycyrrhetinic acid derivatives: Natural product-based soluble epoxide hydrolase inhibitors” (Eur J Med Chem, 2024)
# What was measured:
# [1] = biological target: T1, Bifunctional epoxide hydrolase 2 (Mus musculus, UniProt P34914); test: Inhibition of C57BL/6J mouse cortex sEH using 14,15-EET as substrate preincubated for 15 mins followed by substrate addition measured after 2 hrs by UPLC-MS/MS analysis
# T1 sequence (P34914 whole entry): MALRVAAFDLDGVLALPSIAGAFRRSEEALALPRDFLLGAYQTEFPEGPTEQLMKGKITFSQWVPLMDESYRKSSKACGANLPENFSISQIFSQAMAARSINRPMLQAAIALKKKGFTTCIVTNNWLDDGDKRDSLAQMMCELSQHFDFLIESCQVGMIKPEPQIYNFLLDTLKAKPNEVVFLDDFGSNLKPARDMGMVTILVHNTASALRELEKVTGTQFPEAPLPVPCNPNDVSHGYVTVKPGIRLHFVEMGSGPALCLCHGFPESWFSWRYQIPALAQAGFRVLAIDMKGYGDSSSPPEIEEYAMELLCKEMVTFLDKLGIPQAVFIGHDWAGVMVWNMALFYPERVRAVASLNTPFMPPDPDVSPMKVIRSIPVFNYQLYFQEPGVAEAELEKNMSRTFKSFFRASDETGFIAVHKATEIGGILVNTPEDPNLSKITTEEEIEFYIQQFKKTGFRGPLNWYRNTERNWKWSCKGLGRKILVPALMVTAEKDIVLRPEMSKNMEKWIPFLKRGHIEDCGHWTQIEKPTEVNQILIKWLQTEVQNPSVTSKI
# Mus musculus = species: Mus musculus; test: animal or person; details: BALB/c, po, 6 h, read-out: INH
# Description: Anti-inflammatory activity in BALB/c mouse model of Carrageenan-induced paw edema assessed as inhibition of edema at 20 mg/kg, IG measured upto 6 hrs relative to control
# [2] = Cytotoxicity against HEK293T cells incubated overnight by CCK8 assay; details: human
# [3] = Cytotoxicity against human HepG2 cells incubated overnight by CCK8 assay
# in vivo [4] = details: BALB/c, mouse, plasma, po, 20 mg/kg
# Description: Cmax in BALB/c mouse plasma at 20 mg/kg, IG measured upto 24 hrs by LC-MS/MS analysis
# in vivo [5] = details: BALB/c, mouse, liver, po, 20 mg/kg
# Description: Cmax in BALB/c mouse liver at 20 mg/kg, IG measured upto 24 hrs by LC-MS/MS analysis
# in vivo [6] = details: BALB/c, mouse, plasma, po, 20 mg/kg; remark: listed apart in the source
# Description: AUC (0 to 24 hrs) in BALB/c mouse plasma at 20 mg/kg, IG measured upto 24 hrs by LC-MS/MS analysis
# in vivo [7] = details: BALB/c, mouse, liver/plasma, po, 20 mg/kg
# Description: Ratio of Cmax in BALB/c mouse liver to plasma at 20 mg/kg, IG measured upto 24 hrs by LC-MS/MS analysis
# in vivo [8] = details: BALB/c, mouse, liver/plasma, po, 20 mg/kg; remark: listed apart in the source
# Description: Ratio of AUC (0 to 24 hrs) in BALB/c mouse liver to plasma at 20 mg/kg, IG measured upto 24 hrs by LC-MS/MS analysis
# [9] = biological target: T2, Bifunctional epoxide hydrolase 2 (Homo sapiens, UniProt P34913); test: Inhibition of sEH (unknown origin) using PHOME as substrate incubated for 1 hr by fluorimetric assay
# T2 sequence (P34913 whole entry): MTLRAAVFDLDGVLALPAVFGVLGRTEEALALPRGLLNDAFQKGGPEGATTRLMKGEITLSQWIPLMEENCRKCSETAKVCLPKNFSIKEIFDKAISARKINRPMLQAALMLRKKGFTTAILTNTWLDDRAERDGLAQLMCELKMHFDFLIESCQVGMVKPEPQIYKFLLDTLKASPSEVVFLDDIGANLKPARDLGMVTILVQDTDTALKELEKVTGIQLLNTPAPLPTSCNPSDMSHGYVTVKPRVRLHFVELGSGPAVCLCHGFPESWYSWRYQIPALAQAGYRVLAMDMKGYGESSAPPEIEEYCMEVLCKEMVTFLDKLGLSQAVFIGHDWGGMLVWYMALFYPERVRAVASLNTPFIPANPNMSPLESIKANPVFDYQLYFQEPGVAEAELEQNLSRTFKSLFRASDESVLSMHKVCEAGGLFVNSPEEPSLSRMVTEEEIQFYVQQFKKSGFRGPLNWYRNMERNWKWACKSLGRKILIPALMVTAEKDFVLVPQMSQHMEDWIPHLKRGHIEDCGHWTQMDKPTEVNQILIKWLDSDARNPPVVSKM
structure (smiles),measurement,setting,value
CC1(C)[C@@H](O[C@H]2OC[C@@H](O)[C@@H](O)[C@@H]2O)CC[C@]2(C)[C@H]3C(=O)C=C4[C@H]5C[C@@](C)(CNC(=O)NCC6CCOCC6)CC[C@]5(C)CC[C@@]4(C)[C@]3(C)CC[C@@H]12,IC50,[1],0.0861 µM
same,inhibition in vivo at 20 mg/kg,Mus musculus,37.4%
CC1(C)[C@@H](O[C@H]2O[C@H](CO)[C@@H](O)[C@H](O)[C@@H]2O)CC[C@]2(C)[C@H]3C(=O)C=C4[C@H]5C[C@@](C)(CNC(=O)NCC6CCOCC6)CC[C@]5(C)CC[C@@]4(C)[C@]3(C)CC[C@@H]12,IC50,[1],0.121 µM
same,IC50,[2],46.6 µM
same,IC50,[3],17.6 µM
same,Cmax at 24 h,in vivo [4],194 ng/mL
same,Cmax at 24 h,in vivo [5],2140 ng/g
same,AUC(0-t) at 24 h,in vivo [6],655 ng·h/mL
same,Kp at 24 h,in vivo [7],11
same,Kp at 24 h,in vivo [8],8.91
C[C@H]1[C@H](C)CC[C@]2(C(=O)O)CC[C@]3(C)C(=CC[C@@H]4[C@@]5(C)CC[C@H](O)C(C)(C)[C@@H]5CC[C@]43C)[C@H]12 [URSOLIC ACID],IC50,[9],11.1 µM
